# Test results as given in patent US6809112B2, “Method of treating sexual disturbances” (priority 1999, dated 2004).
# Tests used:
# [1] = system: patient with idiopathic epilepsy and hypogonadism, secondary to chronic carbamazepine treatment; experiment: Treatment of reduced sexual function in a person with idiopathic epilepsy (Examples G, O); format: in vivo, human; conditions: 3 mg/dose 0.5 hr before sexual activity, 2-3 times per week; carbamazepine 500 mg/day; examined after one month
# Experimental: A 75 kg patient has idiopathic epilepsy. They first presented with primary generalized seizures and was diagnosed with idiopathic epilepsy. They have been treated with carbamazepine. Currently they receive 500 mg/day of the drug. They have had two tonic-clonic seizures during the preceding year. The patient complains of diminished sexual interest in their spouse of 8 years. On those occasions when they attempt sexual intercourse, they are able to maintain an erection sufficient for intercourse one-third of the time. […] They report that they rarely have sexual fantasies and rarely masturbates. […] They currently take no prescription drugs other than carbamazepine. […] Plasma testosterone and sex hormone binding globulin assays are performed. The plasma testosterone level is 25 nM, which is considered normal. The plasma sex hormone binding globulin level is 55 nM, which is considered elevated compared to the normal range. The patient is diagnosed with hypogonadism, secondary to chronic carbamazepine treatment (Epilepsia 36: 366-370, 1995). (5R)-(methylamino)-5,6-dihydro-4H-imidazo[4,5,1-ij]quinolin-2(1H)-one (Z)-2-butenedioate (1:1) is prescribed at 3 mg/dose to be taken 0.5 hr before the patient intends to engage in sexual activity. The patient is instructed that they may use the drug on a daily basis, if this is the intended frequency of sexual activity. The patient is examined after one month. They report that they take the drug 2-3 times per week. […] The patient is instructed to continue with the treatment.
# [2] = system: patient with Female Orgasmic Disorder; experiment: Treatment of Female Orgasmic Disorder (Examples D, L); format: in vivo, human; conditions: 1 mg/dose about 0.5 hr before sexual activity; examined after two months; patient report
# From the text: A 50 kg, patient who married three months before presenting for treatment. […] They were not sexually active prior to marriage. They report that their spouse had multiple premarital partners and that they report all their past partners had orgasms. The patient is upset by their inability to have orgasms and feels they are an poor spouse. On questioning they report that they are “too fat” although their weight is appropriate for their height. […] They currently take no prescription drugs other than low dose birth control pills. […] The patient is diagnosed as having Female Orgasmic Disorder that is situational due to psychological factors (Diagnostic and Statistical Manual of Mental Disorders, Fourth Edition, 1994). (5R)-(methylamino)-5,6-dihydro-4H-imidazo[4,5,1-ij]quinolin-2(1H)-one (Z)-2-butenedioate (1:1) is prescribed at 1 mg/dose to be taken about 0.5 hr before the patient intends to engage in sexual activity. The patient is instructed that they may use the drug on a daily basis, if this is the intended frequency of sexual activity. The patient is examined after two months. They report that they use the drug prior to intercourse. […] It is recommended that the patient continue to use the drug for an additional six months, then stop taking the drug for a period of two weeks to determine whether they might now be able to have orgasms in the absence of drug therapy.
# [3] = system: male and female Giant Pandas; experiment: Mating of animals of commercial value (Examples F, N); format: in vivo, Giant Panda; conditions: 0.05 mg of free base equivalents per kilogram of body weight in diet, one occasion; for induction of mating (treatment effect): one hour after ingesting
# From the text: An adult male Giant Panda on temporary loan from a foreign zoo is desired to have breed to an adult female Giant Panda which is normally resident at the zoo. Because of the commercial value of a potential off-spring it is desirable that the animals mate during the time the adult male is on loan. […] As an alternative to anesthetizing the animals for a facilitated transfer of semen between the animals, the male and female Giant Pandas have (5R)-(methylamino)-5,6-dihydro-4H-imidazo[4,5,1-ij]quinolin-2(1H)-one (Z)-2-butenedioate (II) added to their diet on one occasion. The concentration of drug in the diet is calculated to deliver 0.05 mg of free base equivalents of (5R)-(methylamino)-5,6-dihydro-4H-imidazo[4,5,1-ij]quinolin-2(1H)-one (Z)-2-butenedioate (1:1) per kilogram of body weight.
# [4] = system: patient with Male Orgasmic Disorder; experiment: Treatment of Male Orgasmic Disorder (Examples E, M); format: in vivo, human; conditions: 3 mg/dose 0.5-1 hr before sexual activity; examined after one month; patient report
# From the text: A 80 kg, person has been married for 15 years. They present complaining that they have begun to have difficulty achieving an orgasm during vaginal intercourse with their spouse. On most occasions they are unable to ejaculate during sexual intercourse. Infrequently, they are able to ejaculate during sexual, but only after very prolonged vaginal intercourse. […] Their further reports that their spouse finds the prolonged intercourse that they require to ejaculate uncomfortable and has begun avoiding sexual relations. They report that they ejaculate normally when they masturbate. […] They currently take no prescription drugs. […] The patient is diagnosed as having Male Orgasmic Disorder that is acquired and situational due to psychological factors (Diagnostic and Statistical Manual of Mental Disorders, Fourth Edition, 1994). (5R)-(methylamino) -5,6-dihydro-4H-imidazo[4,5,1-ij]quinolin-2(1H)-one (Z)-2-butenedioate (1:1) is prescribed at 3 mg/dose to be taken 0.5-1 hr before the patient intends to engage in sexual activity. The patient is instructed that they may use the drug on a daily basis, if this is the intended frequency of sexual activity. The patient is examined after one month. […] The patient is instructed to continue using the drug.
# [5] = system: patient with Male Erectile Disorder; experiment: Treatment of Male Erectile Disorder (Examples C, K); format: in vivo, human; conditions: 3 mg/dose 0.5 hr before sexual activity; examined after one month; patient report
# From the text: A 75 kg, patient has been married for 20 years. They present complaining that for the past six months they have had difficulty maintaining an erection until completion of sexual intercourse. They develop an adequate erection at the beginning of sexual activity but detumescence occurs when they attempt penetration. Their spouse is their only current sexual partner. They report that their spouse is patient and understanding of their problem but that they are embarrassed, feels that they are a failure, and is growing progressively more angry and sad about their inability to maintain an erection. They masturbate approximately twice each month. During masturbation, they are usually able to maintain an erection until they ejaculate. […] The only remarkable findings were a supine diastolic blood pressure 94 mm mercury and a total plasma cholesterol level of 230 mg/dl. They were instructed to follow the American Heart Association dietary recommendations and to reduce their body weight by 5 kg. They currently take no prescription drugs. […] The patient is diagnosed as having Male Erectile Disorder that is acquired and situational. The etiology is most likely due to psychological factors, although combined factors, e.g., mild hypertension or atherosclerosis, may contribute (Diagnostic and Statistical Manual of Mental Disorders, Fourth Edition, 1994). (5R)-(methylamino)-5,6-dihydro-4H-imidazo[4,5,1-ij]quinolin-2(1H)-one (Z)-2-butenedioate (1:1) is prescribed at 3 mg/dose to be taken 0.5 hr before the patient intends to engage in sexual activity. The patient is instructed that they may use the drug on a daily basis, if this is the intended frequency of sexual activity. The patient is examined after one month. They report that they use the drug prior to intercourse. […] The patient is instructed to continue using the drug.
SMILES,treatment effect (sexual relationship) [1],treatment effect (sexual relationship) [2],induction of mating (treatment effect) [3],treatment effect (quality of sexual relationship) [4],treatment effect (quality of sexual relationship) [5],sexual interest and initiation of sexual activity [1],orgasm during sexual intercourse [2],pregnancy and birth from the mating [3],ejaculation during vaginal intercourse [4],ejaculation [5],maintenance of erection [5]
"CN[C@@H]1Cc2cccc3[nH]c(=S)n(c23)C1 [(5R)-5-(Methylamino)-5,6-dihydro-4H-imidazo[4,5,1-ij]quinoline-2(1H)-thione]",same positive treatment effect,same positive treatment effect,same positive treatment effect,same positive treatment effect,same positive treatment effect,–,–,–,–,–,–
"CN[C@@H]1Cc2cccc3[nH]c(=O)n(c23)C1.O=C(O)/C=C\C(=O)O [(5R)-(methylamino)-5,6-dihydro-4H-imidazo[4,5,1-ij]quinolin-2(1H)-one (Z)-2-butenedioate (1:1)]",enjoys a normal sexual relationship,enjoys an improved sexual relationship with their partner,the animals engage in sexual intercourse,markedly improved,markedly improved,feels more interest in sex and usually initiates sexual activity with their spouse,has an orgasm during sexual intercourse on most occasions,A pregnancy and subsequent birth of an off-spring results,ejaculates during vaginal intercourse on all occasions,usually experiences intra-vaginal ejaculation,maintains an erection for a satisfactory period after vaginal penetration in almost every attempt at intercourse
